Test system: Ba/F3 ETV6-NTRK2-G639R cells
Assay: Proliferation of Ba/F3 ETV6-NTRK2-G639R cells (CellTiter-Glo)
Assay type: cell-based
Settings: Mus musculus, BaF3; Table 6; 72 hours
Description: Ba/F3 ETV6-NTRK2-G639R is a stable transgenic cell line constructed by KYinno Biotechnology Co., Ltd. on mouse primary B cell Ba/F3 wherein NTRK2 is highly expressed with a mutation of G at position 639 to R, and fused with ETV6 to form ETV6-NTRK2. • [Test method]: Promega's CellTiter-Glo® Luminescent Cell Viability Assay kit was used to evaluate the inhibitory activity of the compounds on the proliferation of Ba/F3 ETV6-NTRK2-G639R cells. • [Instrument]: Spectramax M3 multifunctional microplate reader from Molecular Devices. • [Test materials]: Ba/F3 ETV6-NTRK2-G639R cell line (constructed by KYinno Biotechnology Co., Ltd. (Beijing)), 96-well transparent flat-bottomed black-walled cell culture plate (Corning, catalog #3603), RPMI-1640 media (GE, cat #SH30027.01), fetal bovine serum FBS (Thermo Fisher, cat #10099-141), CellTiter-Glo® Luminescent Cell Viability Assay kit (Promega, cat #G7572), PBS (Solarbio, cat #P1020), DMSO (Sigma, cat #D2650). • [Experimental procedure]: When resuscitating Ba/F3 ETV6-NTRK2-G639R cells, the freezing tube was quickly shaken in a 37° C. water bath to melt within 1 minute. The thawed cell suspension was mixed uniformly with RPMI1640 medium containing 10% FBS, centrifuged at 1000 rpm for 5 minutes, and the supernatant discarded. 5 mL of complete medium (RPMI1640 medium with 10% FBS) was taken to resuspend the cell pellets, charged into a cell culture flask with a bottom area of 25 cm^2, and incubated in a cell incubator at 37° C., 95% humidity and 5% CO2. Cells were allowed to passage when the number of cells reached about 10^6 cells/mL. For cell passage, the old cell suspension was directly pipetted evenly, 1/5 of the cell suspension was kept, 4 mL of new complete medium was added, after pipetting evenly, the cell flask was placed in the cell incubator for further culturing. Cell plating was performed when the number of cells reached about 10^6 cells/mL again. For cell plating, 1/5 of the cell suspension was kept for further culturing as in the cell passage method, and the remaining 4/5 of the cell suspension was placed in a 15 mL centrifuge tube, detected for cell viability by Trypan blue exclusion method to ensure that cell viability was above 90%. A cell suspension with a density of 5.56×10^4 viable cells/mL was prepared with complete medium, and 90 μL of such cell suspension was added to a 96-well cell culture plate to obtain the cell density of 5000 viable cells/mL in the cell culture plate. A control group containing no cells, no compound and only complete medium (i.e. culture medium control) and a control group containing no compound but containing cells (i.e. cell control) were set. The cell plate was placed in a cell incubator overnight. The 10 mM compound stock solution in DMSO was first serially diluted with DMSO at a dilution factor of 3.16 times, to obtain 9 concentrations, and the 10th concentration was set as DMSO control without compound. Then, PBS was used to dilute the DMSO solutions of compounds of different concentrations, at a dilution factor of 100 times, so that the DMSO concentration in the compound solution of each concentration was 1%. Finally, 10 μL of each of the above solutions was added to the corresponding cell culture plate, so that the initial compound concentration was 10 μM, with the remaining concentrations being successively diluted at a dilution factor of 3.16 times, and the DMSO content in the cell culture plate was 0.1%. The cell plate was placed in a cell incubator and cultured for 72 hours. For endpoint detection, the CellTiter-Glo reagent was melted, and the cell plate was moved to room temperature to equilibrate for 30 minutes, added with 100 μL of CellTiter-Glo for each well, and shaken on an orbital shaker for 5 minutes to fully lyse the cells. The plate was kept at room temperature for 20 minutes to stabilize the luminescence signal, and the luminescence value of each well was scanned with a multi-functional microplate reader at full wavelength. • [Test samples] […]

SMILES | IC50 [µM]
O=C(Nc1cnn2ccc(N3CCC[C@@H]3c3cc(F)ccc3F)nc12)N1CC[C@H](O)C1 [LOXO-101, Larotrectinib, reference compound] | > 10
CC(C)c1ccc(C(=O)Nc2ccc(Oc3cc4cnn(C)c4cc3-c3cn[nH]c3)c(F)c2)c(=O)n1-c1ccc(F)cc1 [Example 6, N-(3-fluoro-4-(1-methyl-6-(1H-pyrazol-4-yl)-1H-indazol-5-yloxy)phenyl)-1-(4-fluorophenyl)-6-isopropyl-2-oxo-1,2-dihydropyridine-3-carboxamide] | 2.79
CCc1ccc(C(=O)Nc2ccc(Oc3cc4cnn(C)c4cc3-c3cn[nH]c3)c(F)c2)c(=O)n1-c1ccc(F)cc1 [Example 5, N-(3-fluoro-4-(1-methyl-6-(1H-pyrazol-4-yl)-1H-indazol-5-yloxy)phenyl)-1-(4-fluorophenyl)-6-ethyl-2-oxo-1,2-dihydropyridine-3-carboxamide] | 2.69
Cn1ncc2cc(Oc3ccc(NC(=O)c4ccc(C5CC5)n(-c5ccc(F)cc5)c4=O)cc3F)c(-c3cn[nH]c3)cc21 [Example 2, N-(3-fluoro-4-(1-methyl-6-(1H-pyrazol-4-yl)-1H-indazol-5-yloxy)phenyl)-1-(4-fluorophenyl)-6-cyclopropyl-2-oxo-1,2-dihydmpyridine-3-carboxamide] | 1.88
CCn1ncc2cc(Oc3ccc(NC(=O)c4ccc(C)n(-c5ccc(F)cc5)c4=O)cc3F)c(-c3cn[nH]c3)cc21 [Example 3, N-(3-fluoro-4-(1-ethyl-6-(1H-pyrazol-4-yl)-1H-indazol-5-yloxy)phenyl)-1-(4-fluorophenyl)-6-methyl-2-oxo-1,2-dihydmpyridine-3-carboxamide] | 9.87
Cc1ccc(C(=O)Nc2ccc(Oc3cc4cnn(C(C)C)c4cc3-c3cn[nH]c3)c(F)c2)c(=O)n1-c1ccc(F)cc1 [Example 4, N-(3-fluoro-4-(1-isopropyl-6-(1H-pyrazol-4-yl)-1H-indazol-5-yloxy)phenyl)-1-(4-fluorophenyl)-6-methyl-2-oxo-1,2-dihydmpyridine-3-carboxamide] | > 10
Cn1ncc2cc(Oc3ccc(NC(=O)c4ccc(C(F)(F)F)n(-c5ccc(F)cc5)c4=O)cc3F)c(-c3cn[nH]c3)cc21 [Example 1, N-(3-fluoro-4-(1-methyl-6-(1H-pyrazol-4-yl)-1H-indazol-5-yloxy)phenyl)-1-(4-fluorophenyl)-6-trifluoromethyl-2-oxo-1,2-dihydmpyridine-3-carboxamide monomethanesulfonate] | 3.12
Cc1ccc(C(=O)Nc2ccc(Oc3cc4cnn(C)c4cc3-c3cn[nH]c3)c(F)c2)c(=O)n1-c1ccc(F)cc1 [Merestinib, reference compound] | 3.04

Test system: MKN45 cells
Assay: Proliferation of MKN45 cells
Assay type: cell-based
Settings: Homo sapiens, MKN-45; Table 8
Protocol: MKN45 is a human poorly differentiated gastric cancer cell line with high MET expression. Cell proliferation experiments were performed according to literature methods (Zhang, D. et al. Bioorg. Med. Chem. 2013, 21, 6804; Riss, T. L.; Moravec, R. A.; Niles, A. L.; et al. Cell Viability Assays 2013 May 1 [Updated 2016 Jul. 1]. In: Sittampalam, G. S.; Grossman, A.; Brimacombe, K.; et al., editors. Assay Guidance Manual [Internet]. Bethesda (MD): Eli Lilly & Company and the National Center for Advancing Translational Sciences; 2004-. Available from: https://www.ncbi.nlm.nih.gov/books/NBK144065/).

SMILES | IC50 [µM]
O=C(Nc1cnn2ccc(N3CCC[C@@H]3c3cc(F)ccc3F)nc12)N1CC[C@H](O)C1 [LOXO-101, Larotrectinib, reference compound] | > 10
CSc1ccc(C(=O)Nc2ccc(Oc3cc4cnn(C)c4cc3-c3cn[nH]c3)c(F)c2)c(=O)n1-c1ccc(F)cc1 [Example 11, N-(3-fluoro-4-(1-methyl-6-(1H-pyrazol-4-yl)-1H-indazol-5-yloxy)phenyl)-1-(4-fluorophenyl)-6-methylthio-2-oxo-1,2-dihydropyidine-3-carboxamide] | 0.012
CC(C)Oc1ccc(C(=O)Nc2ccc(Oc3cc4cnn(C)c4cc3-c3cn[nH]c3)c(F)c2)c(=O)n1-c1ccc(F)cc1 [Example 16, N-(3-fluoro-4-(1-methyl-6-(1H-pyrazol-4-yl)-1H-indazol-5-yloxy)phenyl)-1-(4-fluorophenyl)-6-isopropoxy-2-oxo-1,2-dihydropyridine-3-carboxamide] | 0.009
CCOc1ccc(C(=O)Nc2ccc(Oc3cc4cnn(C)c4cc3-c3cn[nH]c3)c(F)c2)c(=O)n1-c1ccc(F)cc1 [Example 14, N-(3-fluoro-4-(1-methyl-6-(1H-pyrazol-4-yl)-1H-indazol-5-yloxy)phenyl)-1-(4-fluorophenyl)-6-ethoxy-2-oxo-12-dihydropyridine-3-carboxamide] | 0.011
COc1ccc(C(=O)Nc2ccc(Oc3cc4cnn(C)c4cc3-c3cn[nH]c3)c(F)c2)c(=O)n1-c1ccc(F)cc1 [Example 12, N-(3-fluoro-4-(1-methyl-6-(1H-pyrazol-4-yl)-1H-indazol-5-yloxy)phenyl)-1-(4-fluorophenyl)-6-methoxy-2-oxo-1,2-dihydropyridine-3-carboxamide] | 0.004
Cc1ccc(C(=O)Nc2ccc(Oc3cc4cnn(C)c4cc3-c3cn[nH]c3)c(F)c2)c(=O)n1-c1ccc(F)cc1 [Merestinib, reference compound] | 0.019

Source: patent publication US11952364B2, “TRK inhibitors useful as anticancer drugs” (TYLIGAND BIOSCIENCE (SHANGHAI) LIMITED, priority 2018, dated 2024)
